This series deals with A. gambiae sensu lato. As to the kind of experiment: Mosquito fitness after blood feeding (blood meal size, fecundity, survival). The series is classed as in vivo. Conditions: hRBCs vs RBCs. As for the experimental part:
Mosquitoes used in this study were from the laboratory colony of A. gambiae sensu lato (Keele line, University of Glasgow), which was produced by balanced interbreeding of four A. gambiae s.s. strains (H. Hurd, et al. Evolution, 59, 2560-2572 (2005)). Larvae were reared under standard insectary conditions (27±1° C., 70% humidity, 12 h light: 12 h dark cycle) and fed on TetraMin fish flakes (Tetra ltd., Germany). Pupae were transferred into holding cages for emergence. Emerged adults were fed ad libitum on 5% glucose solution, supplemented with 0.05% (w/v) 4-aminobenzoic acid (PABA, Sigma-Aldrich), through soaked filters on top of the 2 ml tubes and with soaked filter pads inside cages. Red blood cells (RBCs) were washed with Roswell Park Memorial Institute (RPMI) medium and stored in RPMI at 50% haematocrit at 4° C. until use. To measure the effect of HMBPP on mosquito fitness, RBCs stored in RPMI were centrifuged at 2500×g for 5 min followed by replacement of the medium with AB serum for a final haematocrit of 40%. HMBPP (stock concentration at 4 mM in Nanopure water, stored at −80° C.) was diluted to 10 μM in 1 ml RBC suspension, and the corresponding volume of Nanopure water was added to the control RBCs. All experiments were, unless otherwise stated, conducted on 5-7 days post-emergence female mosquitoes maintained in separated cages (approximately 210 individuals per cohort) and fed RBCs either with or without HMBPP for 30 min. All experiments were performed in triplicates.
GLMM statistical modelling was used to corroborate the validity of results based on the whole data set by including the effect of replications (experimental blocks), including weighting for multiple replications. In all analyses, the effect of the main experimental effects (e.g. treatment) was investigated while controlling for variation in experimental replication (random variable). For all results, the significance of all explanatory effects were evaluated by using likelihood ratio test (LRT). Analyses were performed using R statistical software. […]

Molecules are shown by their SMILES.

In the case of `C/C(=C\COP(=O)(O)OP(=O)(O)O)CO` [HMBPP, (E)-4-hydroxy-3-methyl-but-2-enyl pyrophosphate], the mosquito fecundity result (FIG. 3A) is listed as “Neither mosquito fecundity, nor survival was affected”. Further, the mosquito survival entry (FIG. 3B) is given as “Neither mosquito fecundity, nor survival was affected”. For the setting “FIG. 3C”, the “size of mosquito blood meals” value was “significantly increased”.

Values taken from US11638424B2, “Mosquito attractant formulations and uses thereof” (priority 2017, dated 2023).
